# How the values were obtained:
# Type in all cases: cell-based
# [1] = molecular target: chicken α9α10 nAChR (wild type) (Gallus gallus, UniProt Q9I8C7+Q9PTS8); experiment: ACh-evoked currents, two-electrode voltage clamp in Xenopus laevis oocytes, wild-type receptor
# Excerpt: (§1) cDNAs encoding Gallus gallus (chick) or Rattus norvegicus (rat) α9 and α10 nAChR subunits were subcloned into a modified pGEMHE vector for expression studies in Xenopus laevis oocytes. Capped cRNAs were in vitro transcribed from linearized plasmid DNA templates using RiboMAX Large Scale RNA Production System (Promega, Madison, WI). Mutant subunits were produced using Quick Change XL II kit (Stratagene, La Jolla, CA). Amino acid sequences of rat and chicken α9, α10, and Torpedo α1 subunits were aligned using ClustalW (EMBL-EBI, Wellcome Genome Campus, Hinxton, Cambridgeshire). Residues were numbered according to the corresponding Torpedo α1 subunit mature protein ([Karlin, 2002]).
# The maintenance of Xenopus laevis and the preparation and cRNA injection of stage V and VI oocytes have been described in detail elsewhere ([Verbitsky et al., 2000]). Typically, oocytes were injected with 50 nl of RNase-free water containing 0.01–1.0 ng of cRNA (at a 1:1 molar ratio when pairwise combined) and maintained in Barth’s solution at 18°C. […] Data were analyzed using Clampfit from the pClamp 6.1 software (Molecular Devices, Sunnyvale, CA). […]
# Concentration-response curves were normalized to the maximal agonist response in each oocyte. […] Data were analyzed using Clampfit from the pClamp 6.1 software.
# [2] = molecular target: T1, rat double-mutant α9Y190Tα10Y190T receptors (Rattus norvegicus, UniProt P43144+Q9JLB5, Y216T/Y217T); experiment: ACh-evoked currents, two-electrode voltage clamp in Xenopus laevis oocytes; conditions: 1 or 30 mM ACh, n = 8
# T1 construct: expressed in transfected cells; host or cells: Xenopus laevis oocytes (cRNA injection)
# Excerpt: as §1
# (§2) The maintenance of Xenopus laevis and the preparation and cRNA injection of stage V and VI oocytes have been described in detail elsewhere ([Verbitsky et al., 2000]). Typically, oocytes were injected with 50 nl of RNase-free water containing 0.01–1.0 ng of cRNA (at a 1:1 molar ratio when pairwise combined) and maintained in Barth’s solution at 18°C. Electrophysiological recordings were performed 2–6 days after cRNA injection under two-electrode voltage clamp with an Oocyte Clamp OC-725B or C amplifier (Warner Instruments Corp., Hamden, CT). Recordings were filtered at a corner frequency of 10 Hz using a 900BT Tunable Active Filter (Frequency Devices Inc., Ottawa, IL). Data acquisition was performed using a Patch Panel PP-50 LAB/1 interface (Warner Instruments Corp.) at a rate of 10 points per second. Both voltage and current electrodes were filled with 3 M KCl and had resistances of ∼1 MΩ. Data were analyzed using Clampfit from the pClamp 6.1 software (Molecular Devices, Sunnyvale, CA). During electrophysiological recordings, oocytes were continuously superfused (∼15 ml/min) with normal frog saline composed of: 115 mM NaCl, 2.5 mM KCl, 1.8 mM CaCl2, and 10 mM HEPES buffer, pH 7.2. ACh was added to the perfusion solution for application. Unless otherwise indicated, the membrane potential was clamped to −70 mV. To minimize activation of the endogenous Ca^2+ sensitive chloride current ([Elgoyhen et al., 2001]), all experiments were performed in oocytes incubated with the Ca^2+ chelator 1,2-bis(2-aminophenoxy)ethane-N,N,N′,N′-tetraacetic acid (acetoxymethyl ester) (100 µM) for 3 hours before electrophysiological recordings.
# (§3) Concentration-response curves were normalized to the maximal agonist response in each oocyte. The mean and S.E.M. values of the responses are represented. Agonist concentration-response curves were iteratively fitted, using Prism 5 software (GraphPad Software Inc., La Jolla, CA), with the equation: I/Imax = A^nH/(A^nH + EC50^nH), where I is the peak inward current evoked by the agonist at concentration A; Imax is the current evoked by the concentration of the agonist eliciting a maximal response; EC50 is the concentration of the agonist inducing a half-maximal current response; and nH is the Hill coefficient. Data were analyzed using Clampfit from the pClamp 6.1 software.
# [3] = molecular target: T2, chicken W55T double-mutant α9α10 receptors (Gallus gallus, UniProt Q9I8C7+Q9PTS8, W83T/W84T); experiment: as above; conditions: 1 or 30 mM ACh, n = 10
# T2 construct: expressed in transfected cells; host or cells: Xenopus laevis oocytes (cRNA injection)
# Excerpt: as §1, §2, §3
# [4] = molecular target: chicken α9α10W55T receptor (Gallus gallus, UniProt Q9I8C7+Q9PTS8, W83T); experiment: as above
# Excerpt: as §1, §2, §3
# [5] = molecular target: chicken α9W55Tα10 receptor (Gallus gallus, UniProt Q9I8C7+Q9PTS8, W84T); experiment: as above
# Excerpt: as §1, §2, §3
# [6] = molecular target: T3, rat W55T double-mutant α9α10 receptors (Rattus norvegicus, UniProt P43144+Q9JLB5, W81T/W82T); experiment: as above; conditions: 1 or 30 mM ACh, n = 15
# T3 construct: expressed in transfected cells; host or cells: Xenopus laevis oocytes (cRNA injection)
# Excerpt: as §1, §2, §3
# rat α9α10CC/SS receptor = rat α9α10CC/SS receptor (Rattus norvegicus, UniProt P43144+Q9JLB5, C218S/C219S); experiment: as above
# Excerpt: as §1
# as §2, with “ACh was added to the perfusion solution for application.” left out
# as §3
# rat α9α10Y190T receptor = rat α9α10Y190T receptor (Rattus norvegicus, UniProt P43144+Q9JLB5, Y216T); experiment: as above
# Excerpt: as §1
# as §2, with “ACh was added to the perfusion solution for application.” left out
# as §3
# [7] = molecular target: rat α9CC/SSα10CC/SS receptor (Rattus norvegicus, UniProt P43144+Q9JLB5, C218S/C219S/C220S); experiment: as above
# Excerpt: as §1
# as §2, with “ACh was added to the perfusion solution for application.” left out
# as §3
# rat α9W55Tα10 receptor = rat α9W55Tα10 receptor (Rattus norvegicus, UniProt P43144+Q9JLB5, W82T); experiment: as above
# Excerpt: as §1
# as §2, with “ACh was added to the perfusion solution for application.” left out
# as §3
# rat α9Y190Tα10 receptor = rat α9Y190Tα10 receptor (Rattus norvegicus, UniProt P43144+Q9JLB5, Y217T); experiment: as above
# Excerpt: as §1
# as §2, with “ACh was added to the perfusion solution for application.” left out
# as §3
compound,measurement,setting,value
"CC(=O)OCC[N+](C)(C)C [ACh, acetylcholine]",EC50,[1],16 ± 2 µM
same,Imax (maximal evoked current),[1],100 ± 12 nA
same,Response to ACh,[2],failed to respond
same,Currents evoked by ACh,[3],failed to evoke currents
same,EC50,[4],334 ± 13 µM
same,Imax (maximal evoked current),[4],159 ± 32 nA
same,EC50,[5],357 ± 75 µM
same,Imax (maximal evoked current),[5],59 ± 8 nA
same,Currents evoked by ACh,[6],failed to evoke currents
same,Imax (maximal evoked current),rat α9α10CC/SS receptor,571 ± 113 nA
same,Imax (maximal evoked current),rat α9α10Y190T receptor,336 ± 91 nA
same,Imax (maximal evoked current),[7],360 ± 119 nA
same,Imax (maximal evoked current),rat α9W55Tα10 receptor,42 ± 4 nA
same,Imax (maximal evoked current),rat α9Y190Tα10 receptor,112 ± 6 nA
